Laboratory results from article PMC6543015, “Exploring the overlapping binding sites of ifenprodil and EVT‐101 in GluN2B‐containing NMDA receptors using novel chicken embryo forebrain cultures and molecular modeling” (Pharmacology Research & Perspectives, 2019).
Where two headings read alike, the source gives them in different places.

Assays:
[1] = biological target: native GluN2B‐containing NMDA receptors (Gallus gallus, UniProt F1NMB0+Q4KXT1); assay: Calcium influx measurement (Fura-2) in E10 chicken embryo forebrain cell culture at DIV1, induced with NMDA and glycine; assay type: cell-based, chicken (Gallus gallus); details: for EC50: primary cultures from chicken embryo forebrain (E10), read-out: EC50, inhibition of calcium influx; for Emax: read-out: calcium influx blocked
native GluN2B‐containing NMDA receptors, sequence (F1NMB0 entry or part of it, other chains not shown): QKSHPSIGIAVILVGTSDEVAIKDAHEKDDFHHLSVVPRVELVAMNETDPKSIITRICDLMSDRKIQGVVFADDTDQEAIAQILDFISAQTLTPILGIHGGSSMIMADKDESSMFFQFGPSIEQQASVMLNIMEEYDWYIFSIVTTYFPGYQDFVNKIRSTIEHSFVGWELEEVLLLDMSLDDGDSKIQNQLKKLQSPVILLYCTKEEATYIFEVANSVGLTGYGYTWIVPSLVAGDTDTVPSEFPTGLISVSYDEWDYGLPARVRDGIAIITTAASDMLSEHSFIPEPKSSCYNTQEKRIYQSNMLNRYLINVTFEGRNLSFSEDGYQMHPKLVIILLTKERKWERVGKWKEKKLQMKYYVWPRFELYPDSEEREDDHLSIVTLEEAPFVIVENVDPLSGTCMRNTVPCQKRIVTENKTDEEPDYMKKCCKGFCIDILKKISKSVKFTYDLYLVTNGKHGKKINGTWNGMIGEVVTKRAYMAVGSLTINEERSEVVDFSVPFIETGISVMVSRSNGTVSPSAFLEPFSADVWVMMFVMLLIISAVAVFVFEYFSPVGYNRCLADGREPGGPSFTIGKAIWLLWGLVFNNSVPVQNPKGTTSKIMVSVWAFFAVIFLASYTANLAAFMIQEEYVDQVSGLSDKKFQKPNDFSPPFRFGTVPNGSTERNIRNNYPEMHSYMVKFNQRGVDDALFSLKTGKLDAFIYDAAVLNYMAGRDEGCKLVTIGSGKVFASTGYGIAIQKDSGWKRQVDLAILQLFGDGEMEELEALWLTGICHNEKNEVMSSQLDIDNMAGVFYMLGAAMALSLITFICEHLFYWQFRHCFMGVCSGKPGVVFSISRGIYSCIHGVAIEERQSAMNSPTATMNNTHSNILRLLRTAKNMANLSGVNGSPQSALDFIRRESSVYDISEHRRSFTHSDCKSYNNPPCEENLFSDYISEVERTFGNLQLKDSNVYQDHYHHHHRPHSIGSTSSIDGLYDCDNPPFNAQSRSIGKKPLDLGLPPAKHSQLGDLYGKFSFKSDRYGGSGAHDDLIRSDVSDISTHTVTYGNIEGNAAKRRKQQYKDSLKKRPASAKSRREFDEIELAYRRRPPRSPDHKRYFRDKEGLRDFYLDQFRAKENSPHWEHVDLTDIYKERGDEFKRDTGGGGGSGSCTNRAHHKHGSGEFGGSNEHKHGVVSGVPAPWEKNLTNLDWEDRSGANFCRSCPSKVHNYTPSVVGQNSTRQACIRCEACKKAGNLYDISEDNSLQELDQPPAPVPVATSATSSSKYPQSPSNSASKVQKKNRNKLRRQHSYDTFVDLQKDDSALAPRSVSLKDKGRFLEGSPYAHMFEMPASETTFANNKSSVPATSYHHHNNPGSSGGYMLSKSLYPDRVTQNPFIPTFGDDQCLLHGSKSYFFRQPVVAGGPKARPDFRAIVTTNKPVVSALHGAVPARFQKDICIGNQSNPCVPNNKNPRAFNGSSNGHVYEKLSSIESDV
Procedure: The eggs were submerged in crushed ice for 7 minutes to anesthetize the embryos before decapitation. The forebrain was surgically removed, and the meninges were discarded. The tissue was homogenized by chopping with a scalpel before trypsination in buffered solutions as previously described.30, 31 Cells were suspended in DMEM supplemented with 1% N‐2, 100 U/mL penicillin and 0.1 mg/mL streptomycin (Pen‐Strep), 10% fetal bovine serum (FBS), and 0.75% GlutaMAX™. Cells were seeded (1.7 × 10^6 cells/mL) on 35 mm Petri dishes or in 96‐well plates (Corning® CellBIND® 96 well plates; Merck) precoated with poly‐L‐lysine, and incubated at 37°C, with 5% CO2. These cultures contain an abundance of functional GluN2B receptors on DIV1 (A. Ring, pers. commun.).
Fura‐2 fluorescence was measured using CLARIOstar® plate reader (BMG Labtech, Germany). Intracellular Ca^2+ changes were expressed as changes in 340/380 nm fluorescence emission ratio. The wash buffer was then carefully replaced with test compound (20 nmol/L to 10 μmol/L) in standard buffer (n = 4 per concentration, two compounds per 96‐well plate). NMDA receptor‐mediated Ca^2+ influx was induced by NMDA (0.2 mmol/L) and glycine (0.1 mmol/L) in each well. The resulting rise in intracellular Ca^2+ was expressed as a change in the 340/380 emission ratio by subtracting the initial Ca^2+ level from the NMDA stimulated Ca^2+ responses. […] Inhibition curves for each compound were established by dose response experiments (n ≥ 5). For Ro 04‐5595, four representative IC50 values were chosen to make Figure 2A, while 13 experiments around the median were chosen for Figure 2C.

[2] = biological target: recombinant GluN1/GluN2B receptors; details: recombinant GluN1/GluN2B in X. laevis oocytes, electrophysiology; cited from earlier work
[3] = biological target: recombinant GluN1/GluN2B receptors; set-up: method as in PMID 22197913; details: recombinant GluN1/GluN2B in X. laevis oocytes, electrophysiology; cited from earlier work
[4] = E10 chicken forebrain cell culture at DIV 1, NMDA 200 and glycine 100 μmol/L, Fura-2, read-out: IC50 Chicken (present work)
[5] = maximal block by GluN2B-specific allosteric antagonists, chicken forebrain culture

Emax [1, 5] [%] | Structure (SMILES) | IC50 [1, 4] [nM] | calcium influx blocked [1, 5] | EC50 [1] [nM] | IC50 [2] [nM] | IC50 [3] [nM] | Emax [1] [%] | IC50 ([1]; chicken forebrain culture calcium influx assay, read-out: IC50 value) [nM]
– | C[C@@H]([C@H](O)c1ccc(O)cc1)N1CCC(Cc2ccccc2)CC1 [Ro 25‐6981] | 60 ± 27 | approximately 70% | 60 ± 30 | 42 ± 6 | 49 ± 8 | – | –
– | Cc1nccn1Cc1cc(-c2ccc(F)c(C(F)F)c2)cnn1.Cl.Cl [EVT‐101] | 22 ± 8 | approximately 70% | 22 ± 8 | 12 ± 0.2 | – | – | –
– | CC(C(O)c1ccc(O)cc1)N1CCC(Cc2ccccc2)CC1 (stereo not shown) [Ifenprodil, ifenprodil] | 103 ± 39 | – | 100 ± 40 | 110 ± 10 | 130 ± 10 | ~70 | –
~70 | OC(CN1CCC(Cc2ccc(F)cc2)CC1)c1ccc(Cl)cc1 (stereo not shown) [Eliprodil, eliprodil] | 1260 ± 683 | – | 1300 ± 700 | 780 ± 90 | 930 ± 140 | – | –
– | COc1cc2c(cc1O)C(CCc1ccc(Cl)cc1)N(C)CC2 (stereo not shown) [Ro 04‐5595] | 186 ± 35 | – | 186 ± 32 | – | – | – | < 200
